PubChem BioAssay AID200 (DTP/NCI, 2004)
Values joined by “and” are separate entries in the source; they are usually repeats but may differ in a detail not shown here. Equal values may be shown once. Inconclusive results and toxic doses are left out. *1 amine or outer side, *2 acyl side, *3 side chain or, on linkers, in order; H or OH if unused. Where a SMILES comes first, the peptide text is derived from it. Bridges are numbered along the chain shown (N, C = ends). Roman numbers before positions name the chains, in order. [ ]: non-standard residue; d: D form. Actinocin(1to9) = Cc1c2oc3c(C)ccc(C(=O)[*:2])c3nc-2c(C(=O)[*:1])c(N)c1=O; X1 = COC(=O)CCN(CC(=O)[*:2])[*:1]; NMeA = CN[CH](C)C(=O)O

Tested on: B6C3F1 mice, B16 melanoma ip, median survival T/C
Assay: NCI In Vivo Anticancer Drug Screen. Data for tumor model B16 Melanoma (intraperitoneal) in B6C3F1 mice
Settings: endpoint: median survival time, higher = longer survival
Outline: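 Values are T/C ratios: the measurement in treated animals divided by that in vehicle-treated controls, using survival or tumor size in mice carrying transplantable tumors.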

[1] = dose: 12.5 mg/kg/injection, schedule: Q01DX009 (ip), vehicle: saline with Tween-80
[2] = dose: 50.0 mg/kg/injection, schedule: Q01DX009 (ip), vehicle: saline with Tween-80

Question: How did the T/C (dose: 0.02 mg/kg/injection, schedule: Q01DX009 (ip), vehicle: saline) turn out when COc1cc2c(c(OC)c1OC)-c1ccc(OC)c(=O)cc1[C@@H](NC(C)=O)CC2 was run?
Answer: The T/C was 108 % of control.

Question: What about the T/C (dose: 0.04 mg/kg/injection, schedule: Q01DX009 (ip), vehicle: saline) of the same compound?
Answer: Its T/C is 123 % of control.

Question: And the T/C (dose: 0.13 mg/kg/injection, schedule: Q01DX009 (ip), vehicle: Klucel (hydroxypropylcellulose) (HPC))?
Answer: The T/C was 158 % of control.

Question: What about the T/C (dose: 0.19 mg/kg/injection, schedule: Q01DX009 (ip), vehicle: saline) of the same compound?
Answer: The T/C was 156 % of control.

Question: And the T/C (dose: 0.25 mg/kg/injection, schedule: Q01DX009 (ip), vehicle: Klucel (hydroxypropylcellulose) (HPC))?
Answer: The T/C was 155 % of control.

Question: What about the T/C (dose: 0.25 mg/kg/injection, schedule: Q01DX009 (ip), vehicle: saline) of the same compound?
Answer: Its T/C is 164 % of control.

Question: What about the T/C (dose: 0.37 mg/kg/injection, schedule: Q01DX009 (ip), vehicle: saline) of the same compound?
Answer: Its T/C is 167 % of control.

Question: What about the T/C (dose: 0.38 mg/kg/injection, schedule: Q01DX009 (ip), vehicle: saline) of the same compound?
Answer: The T/C was 168 % of control.

Question: What about the T/C (dose: 0.5 mg/kg/injection, schedule: Q01DX009 (ip), vehicle: Klucel (hydroxypropylcellulose) (HPC)) of the same compound?
Answer: Its T/C is 173 % of control.

Question: And the T/C (dose: 0.5 mg/kg/injection, schedule: Q01DX009 (ip), vehicle: saline)?
Answer: Its T/C is 154 % of control.

Question: And the T/C (dose: 0.5 mg/kg/injection, schedule: Q01DX009 (ip), vehicle: water)?
Answer: Its T/C is 157 % of control.

Question: And the T/C (dose: 1.0 mg/kg/injection, schedule: Q01DX009 (ip), vehicle: saline)?
Answer: Its T/C is 154 % of control.

Question: What about the T/C (dose: 125.0 micrograms/kg/injection, schedule: Q01DX009 (ip), vehicle: water) of the same compound?
Answer: Its T/C is 161 % of control.

Question: And the T/C (dose: 250.0 micrograms/kg/injection, schedule: Q01DX009 (ip), vehicle: water)?
Answer: The T/C was 154 % of control.

Question: And the T/C (dose: 500.0 micrograms/kg/injection, schedule: Q01DX009 (ip), vehicle: water)?
Answer: The T/C was 155 % of control.

Question: For O=NNc1ccc(Cl)cn1, which T/C (dose: 1.56 mg/kg/injection, schedule: Q01DX009 (ip), vehicle: water) is on record?
Answer: Its T/C is 118 % of control.

Question: And the T/C (dose: 3.13 mg/kg/injection, schedule: Q01DX009 (ip), vehicle: water)?
Answer: The T/C was 107 % of control.

Question: And the T/C (dose: 6.25 mg/kg/injection, schedule: Q01DX009 (ip), vehicle: water)?
Answer: Its T/C is 115 % of control.

Question: What about the T/C (dose: 12.5 mg/kg/injection, schedule: Q01DX009 (ip), vehicle: water) of the same compound?
Answer: The T/C was 166 % of control and 168 % of control.

Question: Which results are given for O=C1NC(=O)C2C3C=CC(C12)C1C2C(=O)NC(=O)C2C31 (stereo unspecified)?
Answer: T/C [1]: 108 % of control and 100 % of control; T/C (dose: 19.7 mg/kg/injection, schedule: Q01DX009 (ip), vehicle: water): 107 % of control; T/C (dose: 25.0 mg/kg/injection, schedule: Q01DX009 (ip), vehicle: saline with Tween-80): 114 % of control and 104 % of control; T/C (dose: 32.9 mg/kg/injection, schedule: Q01DX009 (ip), vehicle: water): 98 % of control; T/C [2]: 117 % of control; T/C (dose: 54.8 mg/kg/injection, schedule: Q01DX009 (ip), vehicle: water): 117 % of control; T/C (dose: 100.0 mg/kg/injection, schedule: Q01DX009 (ip), vehicle: saline with Tween-80): 120 % of control and 124 % of control

Question: CC(C)OC(=O)c1ccc(C(C)C)cc1 was tested. Which T/C (dose: 3.13 mg/kg/injection, schedule: Q01DX009 (ip), vehicle: saline with Tween-80) did it give?
Answer: The T/C was 94 % of control.

Question: And the T/C (dose: 6.25 mg/kg/injection, schedule: Q01DX009 (ip), vehicle: saline with Tween-80)?
Answer: The T/C was 96 % of control.

Question: What about the T/C [1] of the same compound?
Answer: The T/C was 96 % of control and 101 % of control.

Question: And the T/C [2]?
Answer: Its T/C is 90 % of control.

Question: How did the T/C (dose: 0.25 mg/kg/injection, schedule: Q04DX003 (ip), vehicle: saline + alcohol) turn out when COC(=O)CCN1CC(=O)N(C)C(C)C(=O)OC(C)C(NC(=O)c2c3nc4c(C(=O)NC5C(=O)NC(C(C)C)C(=O)N6CCCC6C(=O)N(CCC(=O)OC)CC(=O)N(C)C(C)C(=O)OC5C)ccc(C)c4oc-3c(C)c(=O)c2N)C(=O)NC(C(C)C)C(=O)N2CCCC2C1=O (stereo unspecified) (I: TVP[X1][NMeA] / II: TVP[X1][NMeA]; ester I:1-I:C, II:1-II:C; linker I:N-II:N via Actinocin(1to9); configuration not given here) was run?
Answer: The T/C was 109 % of control.

Question: What about the T/C (dose: 0.5 mg/kg/injection, schedule: Q04DX003 (ip), vehicle: saline + alcohol) of the same compound?
Answer: Its T/C is 105 % of control.

Question: And the T/C (dose: 1.0 mg/kg/injection, schedule: Q04DX003 (ip), vehicle: saline + alcohol)?
Answer: Its T/C is 98 % of control and 104 % of control.

Question: And the T/C (dose: 2.0 mg/kg/injection, schedule: Q04DX003 (ip), vehicle: saline + alcohol)?
Answer: The T/C was 118 % of control and 102 % of control.

Question: And the T/C (dose: 4.0 mg/kg/injection, schedule: Q04DX003 (ip), vehicle: saline + alcohol)?
Answer: The T/C was 114 % of control.

Question: What about the T/C (dose: 8.0 mg/kg/injection, schedule: Q04DX003 (ip), vehicle: saline + alcohol) of the same compound?
Answer: The T/C was 121 % of control.
